Measured values reported in patent publication US11591367B2, “Melanocortin-1-receptor agonists” (DSM IP ASSETS B.V., priority 2016, dated 2023).
Where two headings read alike, the source gives them in different places. Residues, ends and D or L forms follow the SMILES beside them.

How the values were obtained:
[1] = tested on: Skin samples (from abdominal plastic surgery); assay: Ex-vivo skin pigmentation trial (melanin amount, Fontana-Masson stain); assay type: cell-based; conditions: 4 μl/200 μM of active applied topically daily; melanin amount at day 6; % increase versus untreated
Method: Skin samples (from abdominal plastic surgery) have been cut in pieces of approx. 8×3 mm (Øx thickness) and were cultured up to day 6 in an air-liquid interface in a perforated ring of stainless steel in contact with a culture medium (modified Williams'E medium), the culture medium has been renewed every three days. Six skin specimens have been used for each treatment. Each test sample (4 μl/200 μM of active) has been applied topically on top of each piece after gentle cleaning of the surface with a cotton pad followed by covering with a 6 ø mm delivery membrane, which procedure has been repeated daily. After 6 days of incubation, the melanin amount was assessed on twelve skin sections for each treatment by staining using a modified Fontana-Masson stain. The amount of melanin present in each slide has been evaluated by estimating the intensity and the distribution of grey tone: 8-bit grey-scale images for each treatment have been captured at the microscope. Then the colour space of the images have been transformed from RGB into L*a*b* images and each pixel of the picture has been evaluated according to its L* values. The obtained results have been transformed in ranks of L* and then normalized on the ratio between the selected area and the area of the slide. The result is indicated as % increase versus untreated at day 6.

[2] = molecular target: T1, human MC1 receptor (Homo sapiens, UniProt Q01726); assay: Human MC1 receptor cAMP HTRF functional assay (MC1R stimulation); assay type: cell-based
T1 construct: expressed in transfected cells; host or cells: Chinese Hamster Ovary (CHO) cells
T1 sequence (Q01726 whole entry): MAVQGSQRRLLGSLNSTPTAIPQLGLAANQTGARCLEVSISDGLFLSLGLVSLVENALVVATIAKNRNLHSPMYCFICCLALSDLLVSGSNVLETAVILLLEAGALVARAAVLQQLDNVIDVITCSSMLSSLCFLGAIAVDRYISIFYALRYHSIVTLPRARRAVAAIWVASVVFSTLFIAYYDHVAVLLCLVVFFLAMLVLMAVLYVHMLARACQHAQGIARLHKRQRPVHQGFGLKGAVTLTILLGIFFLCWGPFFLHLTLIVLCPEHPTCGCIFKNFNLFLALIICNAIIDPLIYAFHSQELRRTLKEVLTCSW
Method: Human MC1 Receptor Using cAMP HTRF Functional Assay:
Twenty seven (27) compounds were tested for agonist activity at the human MC1 receptor using cAMP HTRF (homogeneous time-resolved fluorescence) assays at eight (8) concentrations and in duplicate.
On the day of experimentation, compounds were tested at several concentrations in duplicate wells (n=2) to obtain a dose-response curve and an estimated EC50 value. Values obtained for the reference compound were compared to historical values obtained from the same receptor and used to validate the experimental session. For replicate determinations, the maximum variability tolerated in the test was of +/−20% around the average of the replicates.
Assay: After cultivation Chinese Hamster Ovary (CHO) cells were detached and incubated at a specific cell density in assay buffer. At this stage the CHO cells express the human MC1R at their surface. Agonist compounds were added at determined concentration and incubated for 30 min. Cells were lysed in detection buffer in order to extract cAMP. The amount of cAMP within the cells correlates with GPCR-activity, meaning that in this assay it correlates with MC1R-activity. cAMP was detected in a competitive HTRF assay for binding to an anti-cAMP-antibody.

[3] = agonist activity, CHO cells expressing human MC1R, 30 min incubation, 8 concentrations in duplicate, read-out: EC50 [nM], MC1R stimulation assay

| SMILES | skin pigmentation increase versus untreated [1] | EC50 [2, 3] [nM] | EC50 [2] [nM] |
| --- | --- | --- | --- |
| N=C(N)NCCC[C@H](NC(=O)[C@@H](Cc1ccccc1)NC(=O)[C@H](Cc1c[nH]cn1)NC(=O)CNC(=O)c1ccccc1)C(=O)N[C@@H](Cc1c[nH]c2ccccc12)C(N)=O [(I-a), Bz-Gly-His-D-Phe-Arg-Trp-NH2 *2TFA] (HELM PEPTIDE1{[O=C(c1ccccc1)[*:2]].G.H.[dF].R.W.[am]}$$$$V2.0) | +18% | 0.041 |  |
| N=C(N)NCCC[C@H](NC(=O)[C@@H](Cc1ccccc1)NC(=O)[C@H](Cc1c[nH]cn1)NC(=O)CNC(=O)c1ccccc1)C(=O)N[C@H](Cc1ccc2ccccc2c1)C(N)=O [(I-b), Bz-Gly-His-D-Phe-Arg-D-2-NaphAla-NH2 *2TFA] (HELM PEPTIDE1{[O=C(c1ccccc1)[*:2]].G.H.[dF].R.[O=C([C@@H](Cc1ccc2ccccc2c1)N[*:1])[*:2]].[am]}$$$$V2.0) |  | 0.25 |  |
| N=C(N)NCCC[C@H](NC(=O)[C@@H](Cc1ccccc1)NC(=O)[C@H](Cc1c[nH]cn1)NC(=O)CNC(=O)c1ccccc1)C(=O)N[C@@H](Cc1ccc2ccccc2c1)C(N)=O [(I-c), Bz-Gly-His-D-Phe-Arg-L-2-NaphAla-NH2 *2TFA] (HELM PEPTIDE1{[O=C(c1ccccc1)[*:2]].G.H.[dF].R.[O=C([C@H](Cc1ccc2ccccc2c1)N[*:1])[*:2]].[am]}$$$$V2.0) |  | 0.11 |  |
| CCCN(CCC)C(=O)[C@@H](Cc1c[nH]c2ccccc12)NC(=O)[C@H](CCCNC(=N)N)NC(=O)[C@@H](Cc1ccccc1)NC(=O)[C@H](Cc1c[nH]cn1)NC(=O)CNC(=O)c1ccccc1 [(I-d), Bz-Gly-His-D-Phe-Arg-D-Trp-N(Propyl)2 *2TFA] (HELM PEPTIDE1{[O=C(c1ccccc1)[*:2]].G.H.[dF].R.[dW].[CCCN(CCC)[*:1]]}$$$$V2.0) | +21% | 0.42 |  |
| CCCN(CCC)C(=O)[C@H](Cc1c[nH]c2ccccc12)NC(=O)[C@H](CCCNC(=N)N)NC(=O)[C@@H](Cc1ccccc1)NC(=O)[C@H](Cc1c[nH]cn1)NC(=O)CNC(=O)c1ccccc1 [(I-e), Bz-Gly-His-D-Phe-Arg-Trp-N(Propyl)2 *2TFA] (HELM PEPTIDE1{[O=C(c1ccccc1)[*:2]].G.H.[dF].R.W.[CCCN(CCC)[*:1]]}$$$$V2.0) |  | 0.88 |  |
| CCCCCCCCNC(=O)[C@H](Cc1c[nH]c2ccccc12)NC(=O)[C@H](CCCNC(=N)N)NC(=O)[C@@H](Cc1ccccc1)NC(=O)[C@H](Cc1c[nH]cn1)NC(=O)CNC(=O)c1ccccc1 [(I-f), Bz-Gly-His-D-Phe-Arg-Trp-NHOctyl *2TFA] (HELM PEPTIDE1{[O=C(c1ccccc1)[*:2]].G.H.[dF].R.W.[CCCCCCCCN[*:1]]}$$$$V2.0) |  | 1.06 |  |
| N=C(N)NCCC[C@H](NC(=O)[C@@H](Cc1ccccc1)NC(=O)[C@H](Cc1c[nH]cn1)NC(=O)CNC(=O)c1ccccc1)C(=O)N[C@H](Cc1ccccc1)C(N)=O [(I-g), Bz-Gly-His-D-Phe-Arg-D-Phe-NH2 *2TFA] (HELM PEPTIDE1{[O=C(c1ccccc1)[*:2]].G.H.[dF].R.[dF].[am]}$$$$V2.0) |  | 1.79 |  |
| NCC[C@H](NC(=O)[C@@H](Cc1ccccc1)NC(=O)[C@H](Cc1c[nH]cn1)NC(=O)CNC(=O)c1ccccc1)C(=O)N[C@@H](Cc1c[nH]c2ccccc12)C(N)=O [(I-h), Bz-Gly-His-D-Phe-Dab-Trp-NH2 *2TFA] (HELM PEPTIDE1{[O=C(c1ccccc1)[*:2]].G.H.[dF].[Dab].W.[am]}$$$$V2.0) |  | 7.51 |  |
| N=C(N)NCCC[C@H](NC(=O)[C@@H](Cc1ccccc1)NC(=O)[C@H](Cc1cnc[nH]1)NC(=O)CNC(=O)c1ccccc1)C(=O)N(CCc1c[nH]c2ccccc12)CC(N)=O [(I-i), Bz-Gly-His-D-Phe-Arg-(N-IndEt)Gly-NH2 *2TFA] (HELM PEPTIDE1{[O=C(c1ccccc1)[*:2]].G.H.[dF].R.[O=C(CN(CCc1c[nH]c2ccccc12)[*:1])[*:2]].[am]}$$$$V2.0) |  | 4.4 |  |
| CCCN(CCC)C(=O)[C@H](Cc1c[nH]c2ccccc12)NC(=O)[C@H](CCCNC(=N)N)NC(=O)[C@@H](Cc1ccccc1)NC(=O)[C@@H](Cc1c[nH]cn1)NC(=O)CNC(=O)c1ccccc1 [Compound R1, Bz-Gly-D-His-D-Phe-Arg-Trp-N(Propyl)2 *2TFA, reference compound] (HELM PEPTIDE1{[O=C(c1ccccc1)[*:2]].G.[dH].[dF].R.W.[CCCN(CCC)[*:1]]}$$$$V2.0) |  |  | 36 |
| CCCN(CCC)C(=O)[C@H](Cc1c[nH]c2ccccc12)NC(=O)[C@H](CCCNC(=N)N)NC(=O)[C@H](Cc1ccccc1)NC(=O)[C@H](Cc1c[nH]cn1)NC(=O)CNC(=O)c1ccccc1 [Compound R2, Bz-Gly-His-Phe-Arg-Trp-N(Propyl)2 *2TFA, reference compound] (HELM PEPTIDE1{[O=C(c1ccccc1)[*:2]].G.H.F.R.W.[CCCN(CCC)[*:1]]}$$$$V2.0) |  |  | 51.4 |
| CCCN(CCC)C(=O)[C@H](Cc1c[nH]c2ccccc12)NC(=O)[C@@H](CCCNC(=N)N)NC(=O)[C@@H](Cc1ccccc1)NC(=O)[C@H](Cc1c[nH]cn1)NC(=O)CNC(=O)c1ccccc1 [Compound R3, Bz-Gly-His-D-Phe-D-Arg-Trp-N(Propyl)2 *2TFA, reference compound] (HELM PEPTIDE1{[O=C(c1ccccc1)[*:2]].G.H.[dF].[dR].W.[CCCN(CCC)[*:1]]}$$$$V2.0) |  |  | 70.1 |
| N=C(N)NCCC[C@H](NC(=O)[C@@H](Cc1ccccc1)NC(=O)[C@H](Cc1c[nH]cn1)NC(=O)CNC(=O)c1ccccc1)C(=O)NCCc1c[nH]c2ccccc12 [Compound R4, Bz-Gly-His-D-Phe-Arg-Tryptamide *2TFA, reference compound] (HELM PEPTIDE1{[O=C(c1ccccc1)[*:2]].G.H.[dF].R.[c1ccc2c(CCN[*:1])c[nH]c2c1]}$$$$V2.0) |  | 42.9 |  |
